Drawing on ChEMBL document CHEMBL3507680, “University of Dundee, Gates Library screen for HepG2 cell viability”, this text covers cytotoxicity for 41 compounds.

The data set is described as follows: Human HepG2 cell viability assay in 384 well format. The class given is toxicity, cell-based. More on the design: dose 125 nL, time 70.5 hour; concentration not given beside the values. The note with it: HepG2 cells, read-out: Inhibition.
Take `CN(CCN1CCOC1=O)CC(=O)Nc1cc(F)cc(F)c1`: the cytotoxicity at 70.5 h is -19.7%.
For `O=C(NCCCc1nc(=O)[nH][nH]1)Nc1cccc(F)c1` the value was -1.96%; for `O=C(NCCCc1nc(=O)[nH][nH]1)Nc1ccc(Cl)cc1`, -13.5%.
For `CCn1c(CN(C)Cc2csc(C)n2)nc2cc(F)ccc21` the value was -20.1%; for `CC(C)C(CNCc1cccc2c1OCO2)N1CCOCC1` (stereo unspecified), 3.33%.
For `Cc1csc(CCCNc2ccc(S(N)(=O)=O)cc2C#N)n1` the value was -22.6%.
Regarding `CCC(C(=O)Nc1ccc2nc(C)oc2c1)N1CCCC1=O` (stereo unspecified), the cytotoxicity at 70.5 h came to 20.5%.
As for `Cc1ccc(SC2CCCC2)c(C(=O)NCCc2n[nH]c(=O)[nH]2)c1`, the cytotoxicity at 70.5 h came out at 2.84%.
In the case of `Cc1nn(C)c(Cl)c1CN1CCN(c2nccs2)C(C)C1` (stereo unspecified), the cytotoxicity at 70.5 h was 2.61%.
For `O=S(=O)(Cc1c(F)cccc1F)NCCOc1cccnc1` the value was 17.9%; for `COc1ccc(C)cc1CN(C)CCCNS(C)(=O)=O`, 7.17%.
For the compound `Cn1c(CCN2CCN(CCc3ccccc3)CC2)nc2ccccc21`, the cytotoxicity at 70.5 h is -6.23%.
For `CN(CCCNc1cc(N2CCCC2CO)ncn1)S(C)(=O)=O` (stereo unspecified), the cytotoxicity at 70.5 h turned out to be 11.1%.
With `Cc1ccc(NC(C)C(=O)NCc2cccs2)cc1C` (stereo unspecified) the figure was 18%; with `CS(=O)(=O)Cc1cccc(C(=O)NCC2Cc3ccccc3O2)c1` (stereo unspecified), -3.94%.
On to `O=C(Nc1nccs1)N1CCCC(N2CCNC2=O)C1` (stereo unspecified), for which the cytotoxicity at 70.5 h was 1.93%.
For `CC(C)(C)NC(=O)C1CSCN1S(=O)(=O)c1cccc(F)c1` (stereo unspecified), the cytotoxicity at 70.5 h is -9.43%.
For `CC(NC(=O)CCCOc1ccccc1Cl)c1ccncc1` (stereo unspecified) the value was 13.5%.
With `CN(C)C(=O)C1CCCN1CCCNC(=O)c1ccccc1F` (stereo unspecified), the cytotoxicity at 70.5 h was -1.14%.
With `COc1ccccc1CC(=O)NCCCN1CCCC1C(=O)N(C)C` (stereo unspecified) the figure was 2.29%; with `Cc1nc(C)n(CC2CCCN(CCc3ccncc3)C2)n1` (stereo unspecified), -2.11%; with `Cc1csc(N2CCN(Cc3ccccn3)CC2C)n1` (stereo unspecified), -5.63%.
Turning to `Cc1cc(C)n(CC2CCCN2C(=O)c2ccc3c(c2)nnn3C)n1` (stereo unspecified), the cytotoxicity at 70.5 h stood at 1.66%.
For `COc1ccc(NC(C)C(=O)NCCc2cccs2)cc1F` (stereo unspecified) the value was 9.05%; for `CSCC(CCO)NC(=O)Nc1cccc(Br)c1` (stereo unspecified), -0.357%.
With `Cc1cc(C)n(CC2CCCN2C(=O)c2ccc3[nH]nnc3c2)n1` (stereo unspecified) the figure was 0.633%.
For `CSCC(CCO)NC(=O)Nc1cc(Br)ccc1C` (stereo unspecified) the value was -3.57%.
As to `CC(C1CC1)N(C(=O)NCCCn1nc2ccccn2c1=O)C1CC1` (stereo unspecified), the cytotoxicity at 70.5 h amounted to 2.18%.
In the case of `Cc1n[nH]c(C)c1C1CCCN1C(=O)NCC(=O)NC(C)(C)C` (stereo unspecified), the cytotoxicity at 70.5 h is -2.7%.
Consider `CC(C)S(=O)(=O)NCC1CCCN(C(=O)c2ccc3c(c2)CCC3)C1` (stereo unspecified), for which the cytotoxicity at 70.5 h worked out at 1.31%.
On to `CC(C)S(=O)(=O)NCC1CCCN(C(=O)c2ccc3c(c2)OCCO3)C1` (stereo unspecified), for which the cytotoxicity at 70.5 h is -1.13%.
With `Cc1nsc(N2CCCN(c3nc(C4CC4)ns3)CC2)n1`, the cytotoxicity at 70.5 h was 1.36%.
With `Cc1nc2ccccn2c1CN(Cc1cccnc1)CC1CCCO1` (stereo unspecified) the figure was 0.351%.
For `O=C(CN(Cc1cccnc1)CC1CCCO1)Nc1ccc(F)cc1` (stereo unspecified) the value was 2.4%.
For `Cc1n[nH]c(C)c1C1CCCN1C(=O)CNC(=O)C(C)(C)C` (stereo unspecified) the value was -0.174%; for `Cc1nc(C)n(CC2CCCN2CCCc2ccccc2)n1` (stereo unspecified), -6.68%.
Turning to `CC(C)n1cc(CN2CCCN(C(=O)c3nccnc3N)CC2)cn1`, the cytotoxicity at 70.5 h stood at 7.08%.
With `Cn1ccc(NC(=O)Cc2cccc(F)c2)n1` the figure was 14.1%; with `NC(=O)c1ccc(CN2CCCC(O)C2)cc1` (stereo unspecified), -3.47%; with `NC(=O)c1ccc(CN2CCCC(N3CCCC3)C2)cc1` (stereo unspecified), -7.14%.
With `Cc1nn(CC(=O)N2CCCC2Cn2cccn2)c(C)c1Cl` (stereo unspecified) the figure was 9.12%.
